Measurements published in patent US20230190924A1, “ANTIGEN OF ALLERGY AND EPITOPE THEREOF” (HOYU CO., LTD., priority 2017, published 2023).

Tested on: IgE antibodies from patients
Assay: Epitope mapping (2) overlapping (10-amino-acid peptides) and (3) alanine scanning on peptide arrays
Type: binding, human
Settings: overlapping peptides with flanking sequence
Description: On the basis of the sequences (SEQ ID NOs: 272-295 for vitellogenin-2 precursor, SEQ ID NOs: 296-303 for vitellogenin-3, SEQ ID NOs: 304-311 for apolipoprotein B precursor, and SEQ ID NOs: 312-318 for vitellogenin-1 or lipovitellin-1) of the peptides bound to an IgE antibody in serum in a patient-specific manner as described above in (A), a library of overlapping peptide fragments (length: 10 amino acids) was prepared using the sequences of the peptides and sequences in which sequences were added so as to flank each peptide in the amino acid sequences of allergen components (amino acid sequences of SEQ ID NO: 59, 106 or 262 for vitellogenin-2 precursor, SEQ ID NO: 2, 13 or 47 for vitellogenin-3, SEQ ID NO: 152, 237 or 251 for apolipoprotein B, and SEQ ID NO: 18 for vitellogenin-1 or lipovitellin-1) comprising the sequences of the peptide to carry out epitope mapping.
The peptides to be synthesized were shifted by one amino acid.
The library was prepared by the same procedure as described above in (A), and the presence or absence of binding of an IgE antibody present in the serum of a patient and a non-egg-allergic subject to each peptide fragment was measured by the same technique as described above. Amino acids at positions where the binding activity against IgE antibodies from patients were lost or decreased in the peptides shifted by one amino acid while binding activity against IgE antibodies from non-egg-allergic subjects arose were confirmed as amino acids adversely affecting the specificity of binding to IgE antibodies.
Chemiluminescence intensity in images obtained by measurement was converted into a numeric value in the same manner as in (A) using ImageQuant TL (GE Healthcare). Numeric values determined from images obtained as a result of using only anti-human IgE antibody-HRP antibody without carrying out the procedures (2) and (3) described above in the subsection titled (3) Spotting of cellulose-bound peptide solution were […] numeric values determined from images obtained from results about the serum of 6 patients. It was determined that a peptide having the resulting value larger than 0 had no binding activity against IgE antibodies when having less than 20% of values obtained using the sequences (amino acid sequences of SEQ ID NO: 59, 106 or 262 for vitellogenin-2, SEQ ID NO: 2, 13 or 47 for vitellogenin-3, SEQ ID NO: 152, 237 or 251 for apolipoprotein B, and SEQ ID NO: 18 for vitellogenin-1 or lipovitellin-1) serving as the basis of overlapping, had binding activity, albeit poor, against IgE antibodies when having 20% or more and less than 50% thereof, had binding activity, albeit somewhat poor, against IgE antibodies when having 50% or more and less than 70% thereof, had almost equivalent binding activity against IgE antibodies when having 70% or more and less than 90% thereof, and had equivalent or good binding activity against IgE antibodies and thus had remaining binding activity against IgE antibodies when having 90% or more thereof.
From the amino acid sequences identified above in (A), a library of peptide fragments in which N-terminal amino acids were substituted one by one by alanine according to a technique called alanine scanning (Non Patent Literature 1) was prepared by the same technique as described above. The presence or absence of binding of an IgE antibody present in the serum of a patient and a non-egg-allergic subject to each peptide fragment was measured by the same technique as described above. Amino acids at positions where the binding activity against IgE antibodies from patients were lost or decreased by the substitution by alanine while binding activity against IgE antibodies from non-egg-allergic subjects arose were confirmed as amino acids important for exertion of original antigenicity, or amino acids influencing exertion of original antigenicity.

Substance	binding to IgE antibodies from patients, sequence comprising a region amino-terminally adjacent to the epitope	binding to IgE antibodies from patients, sequence comprising a region carboxy-terminally adjacent to the epitope
SEQ ID NO: 319: sequence comprising a region amino-terminally adjacent to epitope 1 (LKVRSPQVEE; epitope)	binding to IgE antibodies from patients	–
SEQ ID NO: 324: sequence comprising a region amino-terminally adjacent to epitope 2 (MFQMTIKKS; epitope)	binding to IgE antibodies from patients	–
SEQ ID NO: 336: sequence comprising a region carboxy-terminally adjacent to epitope 3 (ALKCIGNMGE; epitope)	–	binding to IgE antibodies from patients
SEQ ID NO: 342: sequence comprising a region amino-terminally adjacent to epitope 4 (DAITALKKIA; epitope)	binding to IgE antibodies from patients	–
SEQ ID NO: 351: sequence comprising a region carboxy-terminally adjacent to epitope 4 (PKTVQGYL; epitope)	–	binding to IgE antibodies from patients
SEQ ID NO: 353: sequence comprising a region amino-terminally adjacent to epitope 5 (CNIALKLLSP; epitope)	binding to IgE antibodies from patients	–
SEQ ID NO: 357: sequence comprising a region carboxy-terminally adjacent to epitope 5 (KLDSMSYRY; epitope)	–	binding to IgE antibodies from patients
SEQ ID NO: 359: sequence comprising a region amino-terminally adjacent to epitope 6 (VVNSPRTMF; epitiope)	binding to IgE antibodies from patients	–
SEQ ID NO: 360: sequence comprising a region carboxy-terminally adjacent to epitope 6 (PSAIISKLMA; epitope)	–	binding to IgE antibodies from patients
SEQ ID NO: 363: sequence comprising a region amino-terminally adjacent to epitope 6 (VVNSPRT; epitope)	binding to IgE antibodies from patients	–
SEQ ID NO: 375: sequence comprising a region carboxy-terminally adjacent to epitope 7 (SAGSVADLVE; epitope)	–	binding to IgE antibodies from patients
SEQ ID NO: 377: sequence comprising a region amino-terminally adjacent to epitope 8 (IKELGKALQG; epitope)	binding to IgE antibodies from patients	–
SEQ ID NO: 380: sequence comprising a region carboxy-terminally adjacent to epitope 8 (ELPTETPLVS; epitope)	–	binding to IgE antibodies from patients
SEQ ID NO: 381: sequence comprising a region carboxy-terminally adjacent to epitope 8 (LPTETPLVS; epitope)	–	binding to IgE antibodies from patients
SEQ ID NO: 384: sequence comprising a region amino-terminally adjacent to epitope 8 (IKELGKALQG; epitope)	binding to IgE antibodies from patients	–
SEQ ID NO: 385: sequence comprising a region amino-terminally adjacent to epitope 8 (ELGKALQGWK; epitope)	binding to IgE antibodies from patients	–
SEQ ID NO: 393: sequence comprising a region carboxy-terminally adjacent to epitope 8 (LPTETPLV; epitope)	–	binding to IgE antibodies from patients

Same assay, conditions: procedures (B) overlapping and (C) alanine scanning

Substance	region within the epitope important for binding to IgE antibodies from patients
ELL (epitope) [SEQ ID NO: 637]	important for binding
SEQ ID NO: 323: region in epitope 1 (VEEYNG; epitope)	important for binding
SEQ ID NO: 327: region in epitope 2 (QMTIKKSQNV; epitope)	important for binding
SEQ ID NO: 330: region in epitope 3 (RGREDKMK; epitope)	important for binding
SEQ ID NO: 331: region in epitope 3 (KMKLALKCIG; epitope)	important for binding
SEQ ID NO: 333: region in epitope 3 (REDKMKLAL; epitope)	important for binding
SEQ ID NO: 335: region in epitope 3 (KMKLALKCIG; epitope)	important for binding
SEQ ID NO: 339: region in epitope 4 (ALKKIAWKDP; epitope)	important for binding
SEQ ID NO: 343: region in epitope 4 (LKKIAWKDP; epitope)	important for binding
SEQ ID NO: 344: region in epitope 4 (KIAWKDPKTV; epitope)	important for binding
SEQ ID NO: 346: region in epitope 4 (AWKDPKTVQG; epitope)	important for binding
SEQ ID NO: 347: region in epitope 4 (LKKIA; epitope)	important for binding
SEQ ID NO: 350: region in epitope 4 (AWKDPKTV; epitope)	important for binding
SEQ ID NO: 355: region in epitope 5 (LLSPKLDS; epitope)	important for binding
SEQ ID NO: 356: region in epitope 5 (KLDS; epitope)	important for binding
SEQ ID NO: 366: region in epitope 6 (SPRTMFPSAI; epitope)	important for binding
SEQ ID NO: 369: region in epitope 6 (TMFPSAIISK; epitope)	important for binding
SEQ ID NO: 374: region in epitope 7 (ISKLMANSA; epitope)	important for binding
SEQ ID NO: 379: region in epitope 8 (KALQGWKELP; epitope)	important for binding
SEQ ID NO: 388: region in epitope 8 (KALQGWKEL; epitope)	important for binding
SEQ ID NO: 391: region in epitope 8 (GWKELPTET; epitope)	important for binding
SEQ ID NO: 392: region in epitope 8 (GWKELPTETP; epitope)	important for binding
